# Laboratory results as given in ChEMBL document CHEMBL4680149, “Biological evaluation and chemoproteomics reveal potential antibacterial targets of a cajaninstilbene-acid analogue” (Eur J Med Chem, 2020).
# Active and inactive are the calls of the source. The rule behind the calls is not given here.
# Legend:
# [1] = system: Staphylococcus aureus; assay: Inhibition of PG biosynthesis in Staphylococcus aureus assessed as fold change in CdsA gene expression at 4 ug/ml incubated for 1 hr by qRT-PCR analysis relative to control; format: functional; conditions: dose 4.0 µg/ml
# [2] = system: Staphylococcus aureus; assay: Inhibition of PG biosynthesis in Staphylococcus aureus assessed as fold change in PlsY gene expression at 4 ug/ml incubated for 1 hr by qRT-PCR analysis relative to control; format: functional; conditions: dose 4.0 µg/ml
# [3] = system: Staphylococcus aureus; assay: Inhibition of PG biosynthesis in Staphylococcus aureus assessed as fold change in DgkB gene expression at 4 ug/ml incubated for 1 hr by qRT-PCR analysis relative to control; format: functional; conditions: dose 4.0 µg/ml
# [4] = system: Staphylococcus aureus; assay: Binding affinity to His-tagged recombinant Staphylococcus aureus PgsA expressed in Escherichia coli Rosetta DE3 at 5 uM incubated for 1 hr followed by UV irradiation for 20 mins by in-gel fluorescence scanning analysis; conditions: time 80.0 min
# [5] = system: Cell membrane; assay: Induction of cell membrane depolarization in Staphylococcus aureus ATCC 25923 assessed as reduction in fluorescence intensity at 0.5 to 1 times MIC measured upto 90 mins by DiOC5 dye based flow cytometric analysis; format: subcellular; conditions: time min <=90
# [6] = system: Staphylococcus aureus; assay: Bactericidal activity against in Staphylococcus aureus ATCC 25923 assessed as induction of bacterial death by measuring reduction in fluorescence intensity at 4 times MIC measured upto 90 mins by DiOC5 dye based flow cytometric analysis; format: functional, organism-based; conditions: time min <=90
# [7] = system: Staphylococcus aureus; assay: Inhibition of PG biosynthesis in Staphylococcus aureus assessed as fold change in Cls gene expression at 4 ug/ml incubated for 1 hr by qRT-PCR analysis relative to control; format: functional; conditions: dose 4.0 µg/ml
# [8] = system: RAW264.7; assay: Cytotoxicity against mouse RAW264.7 cells assessed as reduction in cell viability incubated for 48 hrs by MTT assay; format: cell-based; conditions: RAW264.7, 48 h
# [9] = system: Staphylococcus aureus; assay: Inhibition of PG biosynthesis in Staphylococcus aureus assessed as fold change in LtaS gene expression at 4 ug/ml incubated for 1 hr by qRT-PCR analysis relative to control; format: functional; conditions: dose 4.0 µg/ml
# [10] = system: Staphylococcus aureus; assay: Inhibition of PG biosynthesis in Staphylococcus aureus assessed as fold change in PlsC gene expression at 4 ug/ml incubated for 1 hr by qRT-PCR analysis relative to control; format: functional; conditions: dose 4.0 µg/ml
# [11] = system: Cell membrane; assay: Induction of cell membrane disruption in methicillin resistant Staphylococcus aureus ATCC 43300 at 4 ug/ml incubated for 1 hr by transmission electron microscopic analysis; format: subcellular; conditions: dose 4.0 µg/ml
# [12] = system: Cell membrane; assay: Induction of cell membrane permeabilization in methicillin resistant Staphylococcus aureus ATCC 43300 assessed as increase in nucleic acid leakage by measuring increase in absorbance at 0.5 to 2X MIC measured every 30 mins for 5 hrs by spectrophotometry; format: subcellular
# [13] = system: Lipid bilayer; assay: Induction of pore formation in DOPC/DOPG large unilamellar vesicles assessed as calcein leakage at 0.5 to 2 times MIC measured for 30 mins by fluorescence based assay
# [14] = system: Staphylococcus aureus; assay: Resistance index, ratio of MIC for antibacterial activity against Staphylococcus aureus ATCC 25923 measured after 60 days of serial passage to MIC for antibacterial activity against Staphylococcus aureus ATCC25923 measured after 16 hrs; format: functional
# [15] = system: Staphylococcus aureus; assay: Antibacterial activity against Staphylococcus aureus ATCC 25923 assessed as reduction in bacterial growth measured after 60 days of serial passage; format: functional; conditions: ATCC 25923, 1440 h, time 60 day
# [16] = system: Cell membrane; assay: Induction of cell membrane permeabilization in Staphylococcus aureus ATCC 25923 assessed as increase in nucleic acid leakage by measuring increase in absorbance at 0.5 to 2X MIC measured every 30 mins for 5 hrs by spectrophotometry; format: subcellular
# [17] = system: Staphylococcus aureus; assay: Antibacterial activity against methicillin resistant Staphylococcus aureus ATCC 43300 persisters assessed as reduction in number of living bacteria at 24 to 40 ug/ml measured over 24 hrs by colony counting method; format: functional, organism-based; conditions: dose 24-40 µg/ml
# [18] = system: Staphylococcus aureus; assay: Inhibition of PG biosynthesis in Staphylococcus aureus assessed as fold change in PlsX gene expression at 4 ug/ml incubated for 1 hr by qRT-PCR analysis relative to control; format: functional; conditions: dose 4.0 µg/ml
# [19] = system: Staphylococcus aureus; assay: Bactericidal activity against Staphylococcus aureus ATCC 25923 assessed as reduction in bacterial colony formation at 2X MIC incubated for 2 hrs by colony counting method; format: functional, organism-based
# [20] = system: Staphylococcus aureus; assay: Inhibition of PG biosynthesis in Staphylococcus aureus assessed as fold change in YpfP gene expression at 4 ug/ml incubated for 1 hr by qRT-PCR analysis relative to control; format: functional; conditions: dose 4.0 µg/ml
# [21] = system: Staphylococcus aureus; assay: Antibacterial activity against methicillin resistant Staphylococcus aureus ATCC 43300 persisters assessed as eradication of colony formation at 24 to 40 ug/ml incubated for 6 hrs by colony counting method; format: functional, organism-based; conditions: dose 24-40 µg/ml
# [22] = system: Staphylococcus aureus; assay: Antibacterial activity against Staphylococcus aureus ATCC 25923 assessed as reduction in bacterial growth incubated for 16 hrs by broth microdilution method; format: functional
# [23] = system: Cell membrane; assay: Induction of cell membrane disruption in Staphylococcus aureus ATCC 25923 at 4 ug/ml incubated for 1 hr by transmission electron microscopic analysis; format: subcellular; conditions: dose 4.0 µg/ml
# [24] = system: Cell membrane; assay: Induction of cell membrane disruption in Staphylococcus aureus ATCC 25923 assessed as loose cell wall at 4 ug/ml incubated for 1 hr by transmission electron microscopic analysis; conditions: dose 4.0 µg/ml
# [25] = system: Staphylococcus aureus; assay: Bacteriostatic activity against Staphylococcus aureus ATCC 25923 assessed as reduction in bacterial growth at 4 ug/ml incubated for 2 hrs by colony counting method; format: functional, organism-based; conditions: dose 4.0 µg/ml
# [26] = system: Staphylococcus aureus; assay: Bacteriostatic activity against Staphylococcus aureus ATCC 25923 assessed as reduction in bacterial growth at 4 ug/ml incubated for 16 hrs by Kirby-Bauer test method; format: functional, organism-based; conditions: dose 4.0 µg/ml
# [27] = system: Staphylococcus aureus; assay: Inhibition of PG biosynthesis in Staphylococcus aureus assessed as fold change in MprF gene expression at 4 ug/ml incubated for 1 hr by qRT-PCR analysis relative to control; format: functional; conditions: dose 4.0 µg/ml
# [28] = system: Cell membrane; assay: Induction of cell membrane disruption in methicillin resistant Staphylococcus aureus ATCC 43300 assessed as loose cell wall at 4 ug/ml incubated for 1 hr by transmission electron microscopic analysis; conditions: dose 4.0 µg/ml
structure (smiles),measurement,setting,value
COc1cc(/C=C/c2ccccc2F)c(C(=O)O)c(O)c1CC=C(C)C,fold change (FC),[1],1.18
same,fold change (FC),[2],1.58
same,fold change (FC),[3],1.25
same,Activity,[4],Active
same,Activity,[5],Active
same,Activity,[6],Active
same,fold change (FC),[7],0.558
same,IC50,[8],62.6 µM
same,fold change (FC),[9],0.663
same,fold change (FC),[10],1.99
same,Activity,[11],Active
same,Activity,[12],Active
same,Activity,[13],inactive
same,Ratio,[14],3
same,MIC,[15],12 µg/mL
same,Activity,[16],Active
same,Activity,[17],Active
same,fold change (FC),[18],0.577
same,Activity,[19],Active
same,fold change (FC),[20],0.446
same,Activity,[21],Active
same,MIC,[22],4 µg/mL
same,Activity,[23],Active
same,Activity,[24],Active
same,Activity,[25],Active
same,Activity,[26],Active
same,fold change (FC),[27],0.759
same,Activity,[28],Active
